Values joined by “and” are separate entries in the source; they are usually repeats but may differ in a detail not shown here. Identical values can stand only once. Counter-ions that a name gives are not always drawn. Like-named read-outs stand apart in the source and are kept apart here.
Assays:
[1] = Tolerability and vital signs after i.v. administration; assay type: in vivo, rhesus macaques
Experimental: PET experiments within an animal were spaced at least 2 weeks apart to allow recovery from anesthesia. Animals were fasted for 18–24 h prior to each PET scan experiment. At 2–2.5 h before radiotracer injection, the animal was anesthetized with ketamine (10–15 mg/kg) and glycopyrrolate 0.01 mg/kg i.m., transferred to the PET camera, and intubated with an endotracheal tube for continued anesthesia with 2.0–2.5% isoflurane administered through a rebreathing circuit. An intravenous line was placed and used for injection of radiotracer and administration of the drug. A heated water blanket was used to maintain normal body temperature (37 °C). Vital signs, including heart rate, blood pressure, respiration rate, oxygen saturation, and body temperature, were monitored approximately every 1 to 15 min during the study (data not shown).
Animals tolerated i.v. administration of DAS or MPH at all doses examined.

plasma protein = assay: Plasma protein binding
[2] = tested on: dopamine transporters (DAT); assay: [18F]-FE-PE2I PET displacement: DAT occupancy, displacement half-time and brain entry (modified GRTM); assay type: in vivo, rhesus macaques (Macaca mulatta); conditions: for Brain entry time, Caudate / Brain entry time, Putamen / Brain entry time, Mean: modified GRTM; for Brain entry time, Mean: mean over animals and regions; for Percent maximum displacement (= % DAT occupancy), Caudate\Putamen mean, Mean ± SD: group mean of four animals
Experimental: Two male and two female rhesus macaques (Macaca mulatta) housed at the Yale University School of Medicine (New Haven, CT) were used for the [^18F]-FE-PE2I imaging. In all experiments, [^18F]-FE-PE2I was administered as a bolus plus constant infusion (Kbol from 168 to 216 min; total radioactivity = 162 ± 27 MBq) over 4 h to establish steady-state DAT binding. Bolus/infusion delivery parameters (i.e., Kbol) for [^18F]-FE-PE2I for each monkey were determined from baseline [^18F]-FE-PE2I scans that utilized single bolus intravenous injections of the radiotracer (Carson et al. [1993]). Identical procedures were used for list-mode image acquisition with a Siemens Focus 220 PET scanner for all DAT brain studies. The dynamic PET imaging series were reconstructed into 57 frames (6 × 0.5 min, 3 × 1 min, 2 × 2 min, and 46 × 5 min) using filtered back projection with standard corrections for random, scatter, and attenuation provided by the camera manufacturer.
At 2 h into the [^18F]-FE-PE2I scan, under tracer steady-state conditions, DAS or MPH was administered i.v. either as a 3 min i.v. bolus or as a bolus plus 4-step infusion over 40 min (four 10-min steps). The drug bolus experiments were carried out in all four rhesus macaques, each receiving DAS at 0.2 and 0.1 mg/kg and MPH at 0.5 and 0.1 mg/kg. The drug bolus plus 4-step infusion experiments were conducted in two rhesus macaques, each receiving DAS bolus injection over 30 s followed by a 4-step infusion over 40 min (four 10-min steps, 1.55, 1.45, 1.4, 1.3 mg) and MPH bolus injection over 30 s followed by an infusion over 40 min (four 10-min steps, 1.15, 1, 0.85, 0.75 mg).
Reconstructed dynamic PET images were transferred and analyzed using the image processing software package PMOD 3.6 (PMOD Technologies, Zurich, Switzerland). The PET images were normalized to an MR rhesus brain template (Rohlfing et al. [2012]) and a region of interest (ROI) atlas including the caudate nucleus, putamen, and cerebellar cortex was applied. Average activity concentration (kBq/cc) within each ROI was determined and time-activity curves (TAC) representing the regional brain activity concentration over time were generated. TACs were additionally expressed in SUV units (g/ml) by normalizing by the weight of the animal and the injected dose.
Reductions in radiotracer binding following administration of DAS or MPH were used to determine DAT occupancy while reductions in radiotracer binding over time were used to estimate brain entry and binding rates. The displacement half-time is defined as the time it takes from drug administration until 50% of maximal tracer displacement is achieved. Tracer displacement half-times were estimated using average uptake levels from the baseline and displacement experiments and expressing the change in standardized uptake values (SUV) units as a fraction (normalized) of the observed SUV difference at the end of the experiment. Normalized SUV values for caudate and putamen respectively were plotted against time for each dose of DAS and MPH respectively to estimate the drug displacement half-time.
Brain entry of DAS and MPH was determined by analyzing the [^18F]-FE-PE2I TACs in the putamen and caudate nucleus using a kinetic model using the cerebellar cortex as a reference region. The kinetic model is based on the generalized reference tissue model (GRTM; Votaw et al. [2002]) and a recent report of brain entry and binding rates measurement (Nicolas et al. [2016]). […] The half-life of the brain entry and binding of the drug was estimated as ln(2)/α. The kinetic model employs 5 parameters: R1, BPND, r, α, and k2′ where R1 is the relative tracer influx rate constant and k2′ is the reference tissue tracer efflux rate constant. The maximum occupancy was constrained to the measured displacement, while k2′ and α were constrained to a common value across the putamen and caudate nucleus.

[3] = Plasma levels of DAS or MPH during the displacement studies; assay type: in vivo, rhesus macaques (Macaca mulatta)
Experimental: Venous blood samples (1 ml) were collected during the respective bolus and 4-step infusion displacement studies to measure the plasma levels of either DAS or MPH. Blood samples were collected in K3 EDTA vials, processed for plasma, frozen, and stored at − 20 °C until required for HPLC analysis of either DAS or MPH levels.

[4] = 0.1 mg/kg MPH, bolus administration, individual animals A-D
[5] = 0.5 mg/kg MPH, bolus administration, individual animals A-D
[6] = 4.3 mg MPH, bolus + 4 step infusion, individual animals A, B
[7] = MPH 0.1 mg/kg i.v. 3 min bolus, individual animals A-D
[8] = MPH 0.5 mg/kg i.v. 3 min bolus, individual animals A-D
[9] = MPH 4.3 mg, bolus plus 4-step infusion over 40 min, individual animals A, B

COC(=O)C(c1ccccc1)C1CCCCN1 (racemic) [MPH, (±)-Methyl α-Phenyl-α-(2-piperidyl)acetate hydrochloride, reference compound]
Changes in heart rate, respiratory rate, blood pressure, oxygen saturation and temperature compared with baseline ([1]; after i.v. administration, data not shown): No changes outside physiologically accepted limits | Tolerability of i.v. administration ([1]; all doses examined): tolerated | Free plasma concentration higher than that of DAS (plasma protein; MPH relative to DAS): ~30 fold | Free plasma concentration (fraction) (plasma protein; as fraction, from plasma protein binding): 0.86 | Free plasma concentration (plasma protein; from plasma protein binding): 86% | Averaged displacement half-time (between caudate and putamen) ([2]; 0.1 mg/kg MPH i.v. bolus): 15.5 min | Brain entry time, Caudate [2, 4]: 2.57 min and 3.41 min and 2.60 min and 3.44 min | Brain entry time, Putamen [2, 4]: 2.34 min and 2.59 min and 2.91 min and 4.28 min | Brain entry time, Mean ([2]; 0.1 mg/kg MPH, bolus administration): 3 min and 3.02 ± 0.65 min and 3.02 min | Averaged displacement half-time (between caudate and putamen) ([2]; 0.5 mg/kg MPH i.v. bolus): 11.5 min | Brain entry time, Caudate [2, 5]: 2.25 min and 2.19 min and 1.78 min and 2.65 min | Brain entry time, Putamen [2, 5]: 2.07 min and 2.08 min and 2.09 min and 2.00 min | Brain entry time, Mean ([2]; 0.5 mg/kg MPH, bolus administration): 2 min and 2.14 ± 0.25 min and 2.14 min | Brain entry time, Caudate [2, 6]: 7.15 min and 6.48 min | Brain entry time, Putamen [2, 6]: 5.77 min and 7.69 min | Brain entry time, Mean ([2]; 4.3 mg MPH, bolus + 4 step infusion): 6.77 min | Percent maximum displacement (= % DAT occupancy), Caudate\Putamen mean, Mean ± SD ([2]; MPH 0.1 mg/kg i.v. 3 min bolus): 69% and 68.60 ± 5.21% | Percent maximum displacement (= % DAT occupancy), Caudate nucleus [2, 7]: 72.4% and 72.7% and 64.2% and 60.4% | Percent maximum displacement (= % DAT occupancy), Caudate\Putamen mean [2, 7]: 73.1% and 63.6% and 64.6% | Percent maximum displacement (= % DAT occupancy), Putamen [2, 7]: 73.7% and 73.5% and 62.9% and 68.8% | Percent maximum displacement (= % DAT occupancy), Caudate\Putamen mean, Mean ± SD ([2]; MPH 0.5 mg/kg i.v. 3 min bolus): 88% and 88.20 ± 2.62% | Percent maximum displacement (= % DAT occupancy), Caudate nucleus [2, 8]: 91.7% and 87.9% and 83.9% and 87.0% | Percent maximum displacement (= % DAT occupancy), Caudate\Putamen mean [2, 8]: 91.3% and 88.5% and 84.9% and 88.1% | Percent maximum displacement (= % DAT occupancy), Putamen [2, 8]: 90.9% and 89.0% and 85.9% and 89.1% | Percent maximum displacement (= % DAT occupancy), Caudate nucleus [2, 9]: 87.9% and 90.2% | Percent maximum displacement (= % DAT occupancy), Caudate\Putamen mean [2, 9]: 88.9% and 89.5% | Percent maximum displacement (= % DAT occupancy), Putamen [2, 9]: 89.9% and 88.9% | Percent maximum displacement (= % DAT occupancy), Caudate\putamen mean, Mean ([2]; MPH 4.3 mg, bolus plus 4-step infusion over 40 min, mean of two animals): 89.2% | Brain entry faster than DAS ([2]; bolus + 4 step infusion, matched delivery, MPH relative to DAS): ~3 fold | Displacement of [18F]-FE-PE2I / DAT occupancy faster than DAS (displacement half-times) ([2]; i.v. bolus, MPH relative to DAS): approximately 3 fold | Cmax, Mean ± SD ([3]; MPH 0.1 mg/kg i.v. 3 min bolus, group mean): 169.2 ± 28.4 ng/mL | Cmax [3, 7]: 137 ng/mL and 177 ng/mL and 117 ng/mL | Cmax [3, 8]: 823 ng/mL and 609 ng/mL and 729 ng/mL | Average plasma (infusion period) [3, 9]: 111.9 ng/mL and 91.52 ng/mL | Cmax ([3]; rhesus monkey, plasma, iv, 0.1 mg/kg, MPH 0.1 mg/kg i.v. 3 min bolus, group mean, read-out: Cmax, Mean ± SD): 169 ± 28.4 ng/mL | Cmax ([3]; rhesus monkey, plasma, iv, 0.5 mg/kg, MPH 0.5 mg/kg i.v. 3 min bolus, group mean, read-out: Cmax, Mean ± SD): 823 ± 111 ng/mL | Cmax ([3]; rhesus monkey, plasma, iv, 0.5 mg/kg, MPH 0.5 mg/kg i.v. 3 min bolus, individual animals A-D, read-out: Cmax): 1130 ng/mL

Reference: PMC7651685 (Psychopharmacology, 2020)
